From ChEMBL document CHEMBL5465560, “Selectivity Literature for EUbOPEN Chemogenomic Library” (2024)

What was measured:
[1] = biological target: Serine/threonine-protein kinase Nek7 (Homo sapiens) (UniProt Q8TDX7); assay: Selectivity interaction (KinomeScan (DiscoverX)) EUB0000655a NEK7; settings: at 10 µM
[2] = biological target: Cyclin-dependent kinase-like 1 (Homo sapiens) (UniProt Q00532); assay: Selectivity interaction (KinomeScan (DiscoverX)) EUB0001079a CDKL1; settings: at 1 µM
[3] = biological target: T1, Serine/threonine-protein kinase MAK (Homo sapiens) (UniProt P20794); assay: Selectivity interaction (KinomeScan (DiscoverX)) EUB0000607a MAK; settings: at 10 µM
T1 sequence (whole entry): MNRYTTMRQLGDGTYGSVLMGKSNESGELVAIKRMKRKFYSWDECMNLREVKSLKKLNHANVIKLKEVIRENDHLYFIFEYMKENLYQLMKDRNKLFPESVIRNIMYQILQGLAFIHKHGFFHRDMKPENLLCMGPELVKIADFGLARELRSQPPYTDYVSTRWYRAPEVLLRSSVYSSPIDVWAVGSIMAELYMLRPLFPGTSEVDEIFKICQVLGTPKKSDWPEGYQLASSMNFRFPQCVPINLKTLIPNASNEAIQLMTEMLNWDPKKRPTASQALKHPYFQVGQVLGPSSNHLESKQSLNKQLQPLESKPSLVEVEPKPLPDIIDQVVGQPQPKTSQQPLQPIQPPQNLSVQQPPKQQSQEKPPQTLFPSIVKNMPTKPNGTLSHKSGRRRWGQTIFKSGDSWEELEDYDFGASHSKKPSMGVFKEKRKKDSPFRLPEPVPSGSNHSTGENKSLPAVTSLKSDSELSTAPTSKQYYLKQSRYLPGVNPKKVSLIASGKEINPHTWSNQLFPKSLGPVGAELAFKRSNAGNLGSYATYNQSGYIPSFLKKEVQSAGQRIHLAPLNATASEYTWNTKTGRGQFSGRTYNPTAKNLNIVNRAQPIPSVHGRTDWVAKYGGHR

[4] = biological target: Tyrosine-protein kinase JAK1 (Homo sapiens, UniProt P23458); assay: Selectivity interaction (KinomeScan (DiscoverX)) EUB0000607a JAK1; settings: at 10 µM
Chain of Tyrosine-protein kinase JAK1 (P23458 whole entry): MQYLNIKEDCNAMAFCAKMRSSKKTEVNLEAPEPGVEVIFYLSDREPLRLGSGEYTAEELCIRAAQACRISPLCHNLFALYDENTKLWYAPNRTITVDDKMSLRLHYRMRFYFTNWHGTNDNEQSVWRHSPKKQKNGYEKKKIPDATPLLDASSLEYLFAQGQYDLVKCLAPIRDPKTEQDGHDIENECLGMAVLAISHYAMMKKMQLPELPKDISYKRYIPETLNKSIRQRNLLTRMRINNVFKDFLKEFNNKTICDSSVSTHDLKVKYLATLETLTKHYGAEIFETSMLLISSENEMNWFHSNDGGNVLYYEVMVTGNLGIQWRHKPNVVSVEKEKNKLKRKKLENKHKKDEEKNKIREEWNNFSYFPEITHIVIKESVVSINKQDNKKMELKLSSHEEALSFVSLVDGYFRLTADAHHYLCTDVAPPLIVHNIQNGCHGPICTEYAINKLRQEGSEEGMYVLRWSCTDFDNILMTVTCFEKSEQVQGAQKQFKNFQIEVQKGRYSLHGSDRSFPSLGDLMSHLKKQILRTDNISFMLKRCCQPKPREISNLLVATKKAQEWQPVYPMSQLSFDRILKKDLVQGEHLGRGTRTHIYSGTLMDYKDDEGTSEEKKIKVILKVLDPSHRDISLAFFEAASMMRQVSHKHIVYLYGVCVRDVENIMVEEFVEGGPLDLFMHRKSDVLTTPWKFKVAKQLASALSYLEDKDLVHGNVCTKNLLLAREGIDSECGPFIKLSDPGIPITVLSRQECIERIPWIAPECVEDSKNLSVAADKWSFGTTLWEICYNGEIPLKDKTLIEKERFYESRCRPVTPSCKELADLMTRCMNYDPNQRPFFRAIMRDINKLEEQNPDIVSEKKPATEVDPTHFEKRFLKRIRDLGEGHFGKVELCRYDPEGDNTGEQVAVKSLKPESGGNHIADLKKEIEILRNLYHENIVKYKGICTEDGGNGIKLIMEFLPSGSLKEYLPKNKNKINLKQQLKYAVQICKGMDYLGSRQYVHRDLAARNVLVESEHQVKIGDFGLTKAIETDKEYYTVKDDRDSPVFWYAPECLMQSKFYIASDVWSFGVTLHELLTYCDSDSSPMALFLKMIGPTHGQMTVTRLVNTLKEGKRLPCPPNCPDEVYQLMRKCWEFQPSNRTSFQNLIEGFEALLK

[5] = biological target: Serine/threonine-protein kinase MARK2 (Homo sapiens) (UniProt Q7KZI7); assay: Selectivity interaction (SelectScreen profiling (Invitrogen)) EUB0000607a MARK2; settings: at 2 µM
Chain of Serine/threonine-protein kinase MARK2 (Homo sapiens) (Q7KZI7 whole entry): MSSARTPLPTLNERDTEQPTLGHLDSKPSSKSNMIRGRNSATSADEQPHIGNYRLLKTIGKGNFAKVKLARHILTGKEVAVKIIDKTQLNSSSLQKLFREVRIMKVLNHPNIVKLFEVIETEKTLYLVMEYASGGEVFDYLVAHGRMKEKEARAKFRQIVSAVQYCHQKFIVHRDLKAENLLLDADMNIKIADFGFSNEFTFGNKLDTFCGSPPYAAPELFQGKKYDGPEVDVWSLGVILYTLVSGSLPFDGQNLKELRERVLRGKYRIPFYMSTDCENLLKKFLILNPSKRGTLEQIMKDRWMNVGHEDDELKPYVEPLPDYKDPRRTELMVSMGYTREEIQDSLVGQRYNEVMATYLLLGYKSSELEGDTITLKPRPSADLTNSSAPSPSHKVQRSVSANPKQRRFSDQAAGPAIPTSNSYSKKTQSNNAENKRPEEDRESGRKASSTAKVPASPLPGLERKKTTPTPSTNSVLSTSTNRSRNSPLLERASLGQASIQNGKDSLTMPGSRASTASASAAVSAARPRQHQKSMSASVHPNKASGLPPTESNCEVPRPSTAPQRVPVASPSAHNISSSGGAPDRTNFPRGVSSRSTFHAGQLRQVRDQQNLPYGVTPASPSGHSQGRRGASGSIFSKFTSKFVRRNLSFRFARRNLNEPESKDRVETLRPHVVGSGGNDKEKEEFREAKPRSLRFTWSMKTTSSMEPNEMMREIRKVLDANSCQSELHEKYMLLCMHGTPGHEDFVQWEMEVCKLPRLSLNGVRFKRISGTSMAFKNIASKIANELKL

[6] = biological target: Cyclin-dependent kinase 16 (Homo sapiens) (UniProt Q00536); assay: Selectivity interaction (KinomeScan (DiscoverX)) EUB0001619a CDK16; settings: at 1 µM
Chain of Cyclin-dependent kinase 16 (Homo sapiens) (Q00536 whole entry): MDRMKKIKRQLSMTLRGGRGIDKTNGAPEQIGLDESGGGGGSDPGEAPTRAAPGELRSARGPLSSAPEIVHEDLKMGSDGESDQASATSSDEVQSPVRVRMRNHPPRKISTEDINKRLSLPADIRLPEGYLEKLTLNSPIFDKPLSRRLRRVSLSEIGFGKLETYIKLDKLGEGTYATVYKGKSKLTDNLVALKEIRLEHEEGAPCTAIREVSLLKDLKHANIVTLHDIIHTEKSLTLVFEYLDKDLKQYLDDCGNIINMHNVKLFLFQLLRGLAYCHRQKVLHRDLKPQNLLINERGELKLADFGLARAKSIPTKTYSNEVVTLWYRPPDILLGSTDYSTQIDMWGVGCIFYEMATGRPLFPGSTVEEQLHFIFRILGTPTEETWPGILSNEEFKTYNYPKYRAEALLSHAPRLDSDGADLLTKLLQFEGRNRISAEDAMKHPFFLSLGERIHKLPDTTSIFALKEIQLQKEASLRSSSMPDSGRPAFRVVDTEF

[7] = biological target: T2, Mitogen-activated protein kinase kinase kinase 6 (Homo sapiens) (UniProt O95382); assay: Selectivity interaction (ActivX KiNativ screen (kinase selectivity in THP-1 cell lysates)) EUB0000639a MAP3K6; format: subcellular; settings: lysate, at 0.04 µM
T2 sequence (whole entry): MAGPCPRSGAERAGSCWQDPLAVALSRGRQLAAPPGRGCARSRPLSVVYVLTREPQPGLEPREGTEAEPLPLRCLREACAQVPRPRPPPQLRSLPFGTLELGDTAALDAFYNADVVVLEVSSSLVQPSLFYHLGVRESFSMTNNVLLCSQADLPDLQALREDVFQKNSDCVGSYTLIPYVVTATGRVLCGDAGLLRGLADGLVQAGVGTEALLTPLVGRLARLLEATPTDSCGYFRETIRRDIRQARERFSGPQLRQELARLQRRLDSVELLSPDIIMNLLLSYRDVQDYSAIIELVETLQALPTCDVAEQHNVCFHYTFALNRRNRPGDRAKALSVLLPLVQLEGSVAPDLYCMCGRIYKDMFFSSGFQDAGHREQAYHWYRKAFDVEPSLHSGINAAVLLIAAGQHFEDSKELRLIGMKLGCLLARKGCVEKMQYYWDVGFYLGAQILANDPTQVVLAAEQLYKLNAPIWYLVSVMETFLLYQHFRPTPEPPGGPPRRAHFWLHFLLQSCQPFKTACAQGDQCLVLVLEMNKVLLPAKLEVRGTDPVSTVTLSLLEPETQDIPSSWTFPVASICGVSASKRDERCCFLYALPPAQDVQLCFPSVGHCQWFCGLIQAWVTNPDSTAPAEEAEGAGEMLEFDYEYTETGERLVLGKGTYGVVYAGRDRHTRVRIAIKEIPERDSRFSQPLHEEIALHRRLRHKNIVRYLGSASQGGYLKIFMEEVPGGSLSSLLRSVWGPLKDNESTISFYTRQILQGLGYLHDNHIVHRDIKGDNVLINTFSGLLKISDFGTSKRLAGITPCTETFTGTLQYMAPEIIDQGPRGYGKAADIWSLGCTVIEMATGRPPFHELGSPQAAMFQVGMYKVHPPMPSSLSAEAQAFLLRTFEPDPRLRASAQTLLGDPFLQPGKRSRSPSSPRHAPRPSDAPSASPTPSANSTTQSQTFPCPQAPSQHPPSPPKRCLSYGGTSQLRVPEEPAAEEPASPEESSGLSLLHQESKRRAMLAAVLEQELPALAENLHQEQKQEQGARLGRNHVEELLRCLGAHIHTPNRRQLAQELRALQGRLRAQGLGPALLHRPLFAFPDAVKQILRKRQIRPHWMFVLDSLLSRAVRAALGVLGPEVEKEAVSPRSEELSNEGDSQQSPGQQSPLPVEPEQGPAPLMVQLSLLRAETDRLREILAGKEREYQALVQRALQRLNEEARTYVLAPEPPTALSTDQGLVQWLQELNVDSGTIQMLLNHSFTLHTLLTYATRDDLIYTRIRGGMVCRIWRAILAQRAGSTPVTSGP

[8] = biological target: Rho-associated protein kinase 1 (Homo sapiens) (UniProt Q13464); assay: Selectivity interaction (KinomeScan (DiscoverX)) EUB0000229b ROCK1; settings: at 10 µM
[9] = biological target: T3, Rhodopsin kinase GRK7 (Homo sapiens) (UniProt Q8WTQ7); assay: Selectivity interaction (KinomeScan (DiscoverX)) EUB0000666a GRK7; settings: at 10 µM
T3 sequence (whole entry): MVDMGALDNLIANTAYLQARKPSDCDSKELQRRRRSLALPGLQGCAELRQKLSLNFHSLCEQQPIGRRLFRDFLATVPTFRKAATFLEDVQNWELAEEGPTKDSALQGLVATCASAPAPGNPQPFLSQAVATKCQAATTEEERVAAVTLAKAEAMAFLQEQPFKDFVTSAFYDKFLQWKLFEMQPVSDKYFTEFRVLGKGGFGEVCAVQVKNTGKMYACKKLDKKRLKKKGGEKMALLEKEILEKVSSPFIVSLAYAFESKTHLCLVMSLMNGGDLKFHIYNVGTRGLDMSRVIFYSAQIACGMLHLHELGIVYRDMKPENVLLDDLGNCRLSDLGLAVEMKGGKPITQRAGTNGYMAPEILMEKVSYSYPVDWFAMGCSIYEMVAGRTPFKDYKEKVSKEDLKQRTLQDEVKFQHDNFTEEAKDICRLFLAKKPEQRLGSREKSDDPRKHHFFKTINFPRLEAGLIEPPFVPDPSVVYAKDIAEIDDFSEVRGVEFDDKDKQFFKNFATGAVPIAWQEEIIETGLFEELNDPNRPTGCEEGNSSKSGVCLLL

[10] = biological target: Ephrin type-A receptor 2 (Homo sapiens) (UniProt P29317); assay: Selectivity interaction (KinomeScan (DiscoverX)) EUB0000092b EPHA2; settings: at 10 µM
Chain of Ephrin type-A receptor 2 (Homo sapiens) (P29317 whole entry): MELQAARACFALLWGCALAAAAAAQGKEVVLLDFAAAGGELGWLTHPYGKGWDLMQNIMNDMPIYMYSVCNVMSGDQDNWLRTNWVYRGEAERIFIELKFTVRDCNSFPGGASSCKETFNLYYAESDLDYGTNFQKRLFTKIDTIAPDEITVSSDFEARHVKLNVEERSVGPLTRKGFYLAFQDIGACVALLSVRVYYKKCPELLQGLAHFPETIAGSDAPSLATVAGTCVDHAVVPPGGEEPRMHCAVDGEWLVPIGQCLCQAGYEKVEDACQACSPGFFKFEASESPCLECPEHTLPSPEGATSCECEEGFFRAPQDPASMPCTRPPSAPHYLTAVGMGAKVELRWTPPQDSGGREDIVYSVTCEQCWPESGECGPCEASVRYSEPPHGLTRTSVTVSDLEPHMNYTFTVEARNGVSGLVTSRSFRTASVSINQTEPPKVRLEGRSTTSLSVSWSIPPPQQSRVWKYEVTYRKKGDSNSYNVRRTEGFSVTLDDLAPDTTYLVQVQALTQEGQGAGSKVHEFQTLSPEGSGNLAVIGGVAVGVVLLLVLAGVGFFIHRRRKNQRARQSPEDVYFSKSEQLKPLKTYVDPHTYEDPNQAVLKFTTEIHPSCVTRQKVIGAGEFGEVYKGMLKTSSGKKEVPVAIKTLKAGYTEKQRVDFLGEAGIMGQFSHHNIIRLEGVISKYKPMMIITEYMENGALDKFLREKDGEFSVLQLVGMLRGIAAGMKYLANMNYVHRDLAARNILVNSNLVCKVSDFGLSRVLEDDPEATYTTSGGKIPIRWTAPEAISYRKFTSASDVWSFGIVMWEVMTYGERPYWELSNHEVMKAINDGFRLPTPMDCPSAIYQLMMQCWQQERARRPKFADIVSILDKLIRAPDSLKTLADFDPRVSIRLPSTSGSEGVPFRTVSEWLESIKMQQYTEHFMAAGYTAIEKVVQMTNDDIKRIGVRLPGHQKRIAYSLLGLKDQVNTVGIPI

Chain of Cyclin-dependent kinase-like 1 (Homo sapiens) (Q00532 whole entry): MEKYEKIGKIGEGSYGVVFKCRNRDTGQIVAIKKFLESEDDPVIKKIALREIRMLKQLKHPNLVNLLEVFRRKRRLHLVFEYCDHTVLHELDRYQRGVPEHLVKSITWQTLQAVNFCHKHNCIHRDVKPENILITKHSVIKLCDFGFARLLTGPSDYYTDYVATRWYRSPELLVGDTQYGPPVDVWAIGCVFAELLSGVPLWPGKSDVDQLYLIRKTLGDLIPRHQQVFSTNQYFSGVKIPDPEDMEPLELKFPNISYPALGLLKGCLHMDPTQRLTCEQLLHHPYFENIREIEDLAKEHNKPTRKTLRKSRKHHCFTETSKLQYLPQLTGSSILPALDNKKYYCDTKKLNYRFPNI
Chain of Serine/threonine-protein kinase Nek7 (Homo sapiens) (Q8TDX7 whole entry, looked up): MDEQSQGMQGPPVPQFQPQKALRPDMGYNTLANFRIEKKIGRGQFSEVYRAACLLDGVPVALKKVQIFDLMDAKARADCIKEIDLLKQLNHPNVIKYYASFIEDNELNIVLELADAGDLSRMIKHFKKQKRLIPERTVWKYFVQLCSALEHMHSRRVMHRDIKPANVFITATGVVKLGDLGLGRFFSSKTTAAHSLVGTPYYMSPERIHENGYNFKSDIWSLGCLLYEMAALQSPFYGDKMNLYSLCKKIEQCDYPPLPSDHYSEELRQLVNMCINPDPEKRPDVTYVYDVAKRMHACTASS

**Q.** For `CN(C)CCOc1ccc(-c2nc(-c3ccncc3)c(-c3ccc4c(c3)CC/C4=N\O)[nH]2)cc1`, which % of control [1] is on record?
**A.** 100%

**Q.** `Nc1cnc(N2CCc3cc(S(=O)(=O)Nc4c(F)cc(Cl)cc4F)cc(N4CCCC4=O)c32)nc1` [TP-020n] was tested. Which % of control [2] did it give?
**A.** 85%

**Q.** What does the source list for `CNC(=O)Nc1ccc(-c2nc(N3CC4CCC(C3)O4)c3cnn(C4CCC5(CC4)OCCO5)c3n2)cc1`?
**A.** % of control [3]: 100%; % of control [4]: 82%; % of inhibition [5]: 12%

**Q.** For `N#Cc1cccc(-c2c[nH]c3ncnc(N4CCOCC4)c23)c1`, which % of control [6] is on record?
**A.** 90%

**Q.** With `CC[C@@H]1[C@H](F)C(=O)N[C@@H]1COc1nccc2cc(C(N)=O)c(OC)cc12` [ZIMLOVISERTIB] as the compound, how does the % of inhibition [7] read?
**A.** 3.6%

**Q.** How did the % binding [8] turn out when `COc1cc(N(C)c2ccnc3ccc(C(F)(F)F)cc23)cc(OC)c1OC` was run?
**A.** 78%

**Q.** For `O=C(NOC[C@H](O)CO)c1ccc(F)c(F)c1Nc1ccc(I)cc1F`, which % of control [9] is on record?
**A.** 100%

**Q.** With `CCC(=O)N1CCN(c2ccc(-n3c(=O)ccc4cnc5ccc(-c6cnc7ccccc7c6)cc5c43)cc2C(F)(F)F)CC1` as the compound, how does the % of control [10] read?
**A.** 59%
